{"source": "patent US5162328A", "about": "“N-[3-[2-(1H-imidazol-1-yl)ethoxy]phenyl]-4-(2-thienyl)-2-pyrimidinamine and pharmacologically acceptable salts” (American Cyanamid Company, priority 1991, dated 1992)", "assay": "Pharmacokinetics in dogs (plasma concentration by HPLC)", "format": "in vivo, dog (beagle)", "details": "for AUC(0-inf): read-out: AUCO- (to infinite time); for concentration at 0.5 h / concentration at 1 h / concentration at 2 h / concentration at 4 h / concentration at 7 h / Cmax / AUC(0-t) at 4 h: one dog (Dog 1); for concentration at 0.5 h / concentration at 1 h / concentration at 2 h / concentration at 4 h / concentration at 7 h: heading: Plasma concentration; for AUC(0-t) at 4 h: read-out: AUC0-4", "experimental": "Since dogs are used in toxicology studies of antiasthma compounds, this species is chosen for pharmacokinetic evaluations. Use of the dog permits the pharmacokinetic comparison of 2 or more compounds in the same test animal, an evaluation which could not be conveniently performed in a smaller species. For each test compound, normal dogs are given a dose of 2.0 mg/kg/day for 5 consecutive days. There is a washout period of 1 month between the study of each of the test compounds in the same four dogs. Each test compound is administered as a solution of 5 mg/ml in either 0.05 or 0.1N HCl which is dispensed into a gelatin capsule immediately prior to dosage.\nHeparinized blood samples are obtained from each animal on the first, third and fifth day of dosage at 0.5, 1.0, 2.0, 4.0, 7.0, 12.0 and 24.0 hours after the dose. The samples are centrifuged immediately to obtain plasma which is frozen until analyzed.\nAnalysis of plasma is performed using High Performance Liquid Chromatography (HPLC). The analytical procedure is essentially identical for each compound. The internal standard used for N-[3-[2-(1H-imidazol-1-yl)ethoxy]phenyl]-4-(2-thienyl)2-pyrimidinamine is 2-chloro-11-(4-methyl-1-piperazinyl)dibenz[b,f][1,4]oxazepine succinate, while for 2-methyl-N^4 -[4-(4-pyridinyl)-2-pyrimidinyl]-1,4-benzenediamine dihydrochloride and N-[4-[2-(diethylamino)ethoxy]phenyl]-4-(4-pyridinyl)-2-pyrimidnamine dihydrochloride the internal standard is 7-ethoxy-coumarin. In a typical procedure, a 0.4 ml volume of acetonitrile containing internal standard is added a 0.2 ml volume of serum. The sample is mixed by vortexing and centrifuged. The clear protein free supernatent fluid is decanted into a clean tube and evaporated to dryness. The dry residue is dissolved in 0.2 ml of HPLC mobile phase and 50 ul of this solution injected. Peaks corresponding to the test compound being measured and to the internal standard compound are quantitated by their absorption of ultraviolet light at 280 nm. Each set of analytical samples is accompanied by the analysis of a group of standard dog plasma samples prepared to contain amounts of the compound being measured which encompasses the concentration range of the samples.\nFour normal beagle dogs weighing between 9.2 and 10.2 Kg are used in the study.", "key": {"[1]": {"details": "dog, plasma, po, 2 mg/kg/day, Dog 1, day 1, 2 mg/kg/day PO"}, "[2]": {"details": "dog, plasma, po, 2 mg/kg/day, Dog 1, day 3, 2 mg/kg/day PO"}, "[3]": {"details": "dog, plasma, po, 2 mg/kg/day, Dog 1, day 5, 2 mg/kg/day PO"}, "[4]": {"details": "dog, plasma, po, 2 mg/kg/day, day 1, 2 mg/kg/day PO"}, "[5]": {"details": "dog, plasma, po, 2 mg/kg/day, day 3, 2 mg/kg/day PO"}, "[6]": {"details": "dog, plasma, po, 2 mg/kg/day, day 5, 2 mg/kg/day PO"}}, "note": "Where two headings read alike, the source gives them in different places."}
{"molecule": "CCN(CC)CCOc1ccc(Nc2nccc(-c3ccncc3)n2)cc1.Cl.Cl", "note": "[Compound 3, N-[4-[2-(diethylamino)ethoxy]phenyl]-4-(4-pyridinyl)-2-pyrimidinamine dihydrochloride, reference compound]", "values": [{"measurement": "Tmax", "setting": "[1]", "value": 1, "unit": "h"}, {"measurement": "half-life", "setting": "[1]", "value": 1.77, "unit": "h"}, {"measurement": "AUC(0-inf)", "setting": "[1]", "value": 374, "unit": "ng·h/mL"}, {"measurement": "Tmax", "setting": "[2]", "value": 1, "unit": "h"}, {"measurement": "half-life", "setting": "[2]", "value": 1.25, "unit": "h"}, {"measurement": "AUC(0-inf)", "setting": "[2]", "value": 423, "unit": "ng·h/mL"}, {"measurement": "Tmax", "setting": "[3]", "value": 1, "unit": "h"}, {"measurement": "half-life", "setting": "[3]", "value": 2.16, "unit": "h"}, {"measurement": "AUC(0-inf)", "setting": "[3]", "value": 392, "unit": "ng·h/mL"}, {"measurement": "concentration at 0.5 h", "setting": "dog, plasma, po, 2 mg/kg/day, day 1, 0.5 h, 2 mg/kg/day PO", "value": 30, "unit": "ng/mL"}, {"measurement": "concentration at 1 h", "setting": "dog, plasma, po, 2 mg/kg/day, day 1, 1.0 h, 2 mg/kg/day PO", "value": 125, "unit": "ng/mL"}, {"measurement": "concentration at 2 h", "setting": "dog, plasma, po, 2 mg/kg/day, day 1, 2.0 h, 2 mg/kg/day PO", "value": 102, "unit": "ng/mL"}, {"measurement": "concentration at 4 h", "setting": "dog, plasma, po, 2 mg/kg/day, day 1, 4.0 h, 2 mg/kg/day PO", "value": 40, "unit": "ng/mL"}, {"measurement": "concentration at 7 h", "setting": "dog, plasma, po, 2 mg/kg/day, day 1, 7.0 h, 2 mg/kg/day PO", "value": "< 30", "unit": "ng/mL"}, {"measurement": "Cmax", "setting": "[4]", "value": 125, "unit": "ng/mL"}, {"measurement": "AUC(0-t) at 4 h", "setting": "[4]", "value": 302, "unit": "ng·h/mL"}, {"measurement": "concentration at 0.5 h", "setting": "dog, plasma, po, 2 mg/kg/day, day 3, 0.5 h, 2 mg/kg/day PO", "value": 124, "unit": "ng/mL"}, {"measurement": "concentration at 1 h", "setting": "dog, plasma, po, 2 mg/kg/day, day 3, 1.0 h, 2 mg/kg/day PO", "value": 192, "unit": "ng/mL"}, {"measurement": "concentration at 2 h", "setting": "dog, plasma, po, 2 mg/kg/day, day 3, 2.0 h, 2 mg/kg/day PO", "value": 81, "unit": "ng/mL"}, {"measurement": "concentration at 4 h", "setting": "dog, plasma, po, 2 mg/kg/day, day 3, 4.0 h, 2 mg/kg/day PO", "value": 34, "unit": "ng/mL"}, {"measurement": "concentration at 7 h", "setting": "dog, plasma, po, 2 mg/kg/day, day 3, 7.0 h, 2 mg/kg/day PO", "value": "< 30", "unit": "ng/mL"}, {"measurement": "Cmax", "setting": "[5]", "value": 192, "unit": "ng/mL"}, {"measurement": "AUC(0-t) at 4 h", "setting": "[5]", "value": 362, "unit": "ng·h/mL"}, {"measurement": "concentration at 0.5 h", "setting": "dog, plasma, po, 2 mg/kg/day, day 5, 0.5 h, 2 mg/kg/day PO", "value": "< 30", "unit": "ng/mL"}, {"measurement": "concentration at 1 h", "setting": "dog, plasma, po, 2 mg/kg/day, day 5, 1.0 h, 2 mg/kg/day PO", "value": 153, "unit": "ng/mL"}, {"measurement": "concentration at 2 h", "setting": "dog, plasma, po, 2 mg/kg/day, day 5, 2.0 h, 2 mg/kg/day PO", "value": 82, "unit": "ng/mL"}, {"measurement": "concentration at 4 h", "setting": "dog, plasma, po, 2 mg/kg/day, day 5, 4.0 h, 2 mg/kg/day PO", "value": 55, "unit": "ng/mL"}, {"measurement": "concentration at 7 h", "setting": "dog, plasma, po, 2 mg/kg/day, day 5, 7.0 h, 2 mg/kg/day PO", "value": "< 30", "unit": "ng/mL"}, {"measurement": "Cmax", "setting": "[6]", "value": 153, "unit": "ng/mL"}, {"measurement": "AUC(0-t) at 4 h", "setting": "[6]", "value": 293, "unit": "ng·h/mL"}, {"measurement": "k el", "setting": "dog, plasma, po, 2 mg/kg/day, derived from mean of half-life values, read-out: elimination constant (converted)", "value": 0.000155, "unit": "s⁻¹"}, {"measurement": "measurable concentrations in plasma (in words)", "setting": "four dogs, 2 mg/kg/day PO", "value": "only one dog provided measurable concentrations of compound in the plasma"}]}
